Measurements as given in patent publication US7105534B2, “Imidazo[1,2-α]pyridine ether compounds as ion channel modulators” (Cardiome Pharma Corp., priority 2000, dated 2006).
pIC50: −log10 of the molar value.

How the values were obtained:
Sprague Dawley rats = assay: Cardiovascular and behavioral effects: ECG changes during i.v. infusion in conscious rats; type: in vivo, rat
Experimental: Preparative surgery is performed in Sprague Dawley rats weighing 200–300 gm and anaesthetized with 65 mg/kg (i.p.) pentobarbital. The femoral artery and vein are cannulated using polyethylene (PE)-10 tubing. Prior to surgery, this PE-10 tubing had been annealed to a wider gauge (PE-50) tubing for externalization. The cannulated PE-10/PE-50 tubing is passed through a trocar and exteriorised together with three (lead II) limb ECG leads (see below). The trocar is threaded under the skin of the back and out through a small incision at the mid-scapular region. A ground ECG electrode is inserted subcutaneously using a 20 gauge needle with the lead wire threaded through it. To place the other ECG electrodes, a small incision is made in the anterior chest region over the heart and ECG leads are inserted into the subcutaneous muscle layer in the region of the heart using a 20 guage needle. Other ECG leads are inserted into the subcutaneous muscle layer in the region near the base of the neck and shoulder (right side). The animal is returned to a clean recovery-cage with free access to food and water. The treatment and observational period for each animal commenced after a 24-hour recovery period.
A 15 min observational period is recorded followed by the intravenous infusion regime of the test compound at an initial dose of 2.0 μmol/kg/min (at 1 ml/hr). This rate is doubled every 5 minutes until one of the following effects is observed:
Blood pressure (BP), heart rate (HR) and ECG variables are continuously recorded while behavioral responses are also monitored and the total accumulative drug dose and drug infusion rate at which the response (such as convulsion, piloerection, ataxia, restlessness, compulsive chewing, lip-smacking, wet dog shake etc.) occurred are recorded.
Electrocardiograph (ECG) parameters: PR, QRS, QT1 (peak of T-wave), QT2 (midpoint of T-wave deflection) and hemodynamic parameters: BP and HR are analyzed using the automated analysis function in LabView (National Instruments) with a customized autoanalysis software (Nortran Pharmaceuticals). The infused dose producing 25% from control (D25) for all recorded ECG variables is determined.
Table 2 describes the results of the tests as D25 (micromol/kg) which are the doses required to produce a 25% increase in the ECG parameter measured (ne=not estimated). The increases in P-R interval and QRS interval indicate cardiac sodium channel blockade while the increase in Q-T interval indicates cardiac potassium channel blockade.

hH1 Na+ current = target: T1, hH1 Na+ current (Homo sapiens, UniProt Q14524); assay: Patch-clamp inhibition of cloned ion channel current in transfected HEK cells: Na; type: cell-based; details: peak hH1 Na+ current, -100 mV to -30 mV
T1 construct: expressed in transfected cells; host or cells: HEK cells, transient transfection, vector pCDNA3
Experimental: The relevant cloned ion channels (e.g. cardiac hH1, Kv1.4, Kv1.5, Kv4.2, Kv2.1, HERG etc.) are studied by transient transfection into HEK cells using the mammalian expression vector pCDNA3. Transfections for each channel type are carried out separately to allow individual study of the ion channel of interest. Cells expressing channel protein are detected by cotransfecting cells with the vector pHook-1 (Invitrogen, San Diego, Calif., USA). […] Equal concentrations of individual channel and pHook DNA are incubated with 10× concentration of lipofectAce in Modified Eagle's Medium (MEM, Canadian Life Technologies) and incubated with parent HEK cells plated on 25 mm culture dishes. After 3–4 hours the solution is replaced with a standard culture medium plus 20% fetal bovine serum and 1% antimycotic. Transfected cells are maintained at 37C in an air/5% CO2 incubator in 25 mm Petri dishes plated on glass coverslips for 24–48 hours to allow channel expression to occur. 20 min prior to experiments, cells are treated with beads coated with phOX. After 15 min, excess beads are […] off with cell culture medium and cells which had beads stuck to them are used for electrophysiological tests.
For whole-cell recording the control pipette filling solution contained (in mM): KCl, 130; EGTA, 5; MgCl2, 1; HEPES, 10; Na2ATP, 4; GTP, 0.1; and is adjusted to pH 7.2 with KOH. The control bath solution contained (in mM): NaCl, 135; KCI, 5; sodium acetate, 2.8; MgCl2, 1; HEPES, 10; CaCl2, 1; and is adjusted to pH 7.4 with NaOH. The test ion channel modulating compound is dissolved to 10 mM stock solutions in water and used at concentrations between 0.5 and 100 μM.
Coverslips containing cells are removed from the incubator before experiments and placed in a superfusion chamber (volume 250 μl) containing the control bath solution at 22C to 23C. All recordings are made via the variations of the patch-clamp technique, using an Axopatch 200A amplifier (Axon Instruments, CA). Patch electrodes are pulled from thin-walled borosilicate glass (World Precision Instruments; FL) on a horizontal micropipette puller, fire-polished, and filled with appropriate solutions. Electrodes had resistances of […] when filled with control filling solution. Analog capacity compensation is used in all whole cell measurements. In some experiments, leak subtraction is applied to data. Membrane potentials have not been corrected for any junctional potentials that arose between the pipette and bath solution. Data are filtered at 5 to 10 kHz before digitization and stored on a microcomputer for later analysis using the pClamp6 software (Axon Instruments, Foster City, Calif.). Due to the high level of expression of channel cDNA's in HEK cells, there is no need for signal averaging. The average cell capacitance is quite small, and the absence of ionic current at negative membrane potentials allowed faithful leak subtraction of data.
The concentration-response curves for changes in peak and steady-state current produced by the test compound are computer-fitted to the Hill equation: f=1−1/[1+([…])^n] [1]
where f is the fractional current (f=Idrug/Icontrol) at drug concentration [D]; IC50 is the concentration producing half-maximal inhibition and n is the Hill coefficient.
Compounds of the present invention may be evaluated by this method. […] Block is determined from the decrease in peak hH1 Na^+ current, or in steady-state Kv1.5 and integrated Kv4.2 current in the presence of drug. To record Na^+ current, cells are depolarized from the holding potential of −100 mV to a voltage of −30 mV for 10 ms to fully open and inactivate the channel. To record Kv1.5 and Kv4.2 current, cells are depolarized from the holding potential of −80 mV to a voltage of +60 mV for 200 ms to fully open the channel. Currents are recorded in the steady-state at a range of drug concentrations during stimulation every 4 s. […]

HERG = target: T2, HERG (Homo sapiens, UniProt Q12809); assay: Patch-clamp inhibition of cloned ion channel current in transfected HEK cells: HERG; type: cell-based; details: whole-cell patch clamp
T2 construct: expressed in transfected cells; host or cells: HEK cells, transient transfection, vector pCDNA3
Procedure, shortened: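 HERG channels were expressed by transient lipofection of HEK cells with pCDNA3 plus the pHook-1 marker, and bead-tagged cells were selected after 24–48 hours. Whole-cell currents were recorded at 22C to 23C with an Axopatch 200A in KCl pipette and NaCl bath solutions. Compound was applied at 0.5 to 100 μM, and IC50 came from Hill equation fits.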

T1 sequence (Q14524 whole entry): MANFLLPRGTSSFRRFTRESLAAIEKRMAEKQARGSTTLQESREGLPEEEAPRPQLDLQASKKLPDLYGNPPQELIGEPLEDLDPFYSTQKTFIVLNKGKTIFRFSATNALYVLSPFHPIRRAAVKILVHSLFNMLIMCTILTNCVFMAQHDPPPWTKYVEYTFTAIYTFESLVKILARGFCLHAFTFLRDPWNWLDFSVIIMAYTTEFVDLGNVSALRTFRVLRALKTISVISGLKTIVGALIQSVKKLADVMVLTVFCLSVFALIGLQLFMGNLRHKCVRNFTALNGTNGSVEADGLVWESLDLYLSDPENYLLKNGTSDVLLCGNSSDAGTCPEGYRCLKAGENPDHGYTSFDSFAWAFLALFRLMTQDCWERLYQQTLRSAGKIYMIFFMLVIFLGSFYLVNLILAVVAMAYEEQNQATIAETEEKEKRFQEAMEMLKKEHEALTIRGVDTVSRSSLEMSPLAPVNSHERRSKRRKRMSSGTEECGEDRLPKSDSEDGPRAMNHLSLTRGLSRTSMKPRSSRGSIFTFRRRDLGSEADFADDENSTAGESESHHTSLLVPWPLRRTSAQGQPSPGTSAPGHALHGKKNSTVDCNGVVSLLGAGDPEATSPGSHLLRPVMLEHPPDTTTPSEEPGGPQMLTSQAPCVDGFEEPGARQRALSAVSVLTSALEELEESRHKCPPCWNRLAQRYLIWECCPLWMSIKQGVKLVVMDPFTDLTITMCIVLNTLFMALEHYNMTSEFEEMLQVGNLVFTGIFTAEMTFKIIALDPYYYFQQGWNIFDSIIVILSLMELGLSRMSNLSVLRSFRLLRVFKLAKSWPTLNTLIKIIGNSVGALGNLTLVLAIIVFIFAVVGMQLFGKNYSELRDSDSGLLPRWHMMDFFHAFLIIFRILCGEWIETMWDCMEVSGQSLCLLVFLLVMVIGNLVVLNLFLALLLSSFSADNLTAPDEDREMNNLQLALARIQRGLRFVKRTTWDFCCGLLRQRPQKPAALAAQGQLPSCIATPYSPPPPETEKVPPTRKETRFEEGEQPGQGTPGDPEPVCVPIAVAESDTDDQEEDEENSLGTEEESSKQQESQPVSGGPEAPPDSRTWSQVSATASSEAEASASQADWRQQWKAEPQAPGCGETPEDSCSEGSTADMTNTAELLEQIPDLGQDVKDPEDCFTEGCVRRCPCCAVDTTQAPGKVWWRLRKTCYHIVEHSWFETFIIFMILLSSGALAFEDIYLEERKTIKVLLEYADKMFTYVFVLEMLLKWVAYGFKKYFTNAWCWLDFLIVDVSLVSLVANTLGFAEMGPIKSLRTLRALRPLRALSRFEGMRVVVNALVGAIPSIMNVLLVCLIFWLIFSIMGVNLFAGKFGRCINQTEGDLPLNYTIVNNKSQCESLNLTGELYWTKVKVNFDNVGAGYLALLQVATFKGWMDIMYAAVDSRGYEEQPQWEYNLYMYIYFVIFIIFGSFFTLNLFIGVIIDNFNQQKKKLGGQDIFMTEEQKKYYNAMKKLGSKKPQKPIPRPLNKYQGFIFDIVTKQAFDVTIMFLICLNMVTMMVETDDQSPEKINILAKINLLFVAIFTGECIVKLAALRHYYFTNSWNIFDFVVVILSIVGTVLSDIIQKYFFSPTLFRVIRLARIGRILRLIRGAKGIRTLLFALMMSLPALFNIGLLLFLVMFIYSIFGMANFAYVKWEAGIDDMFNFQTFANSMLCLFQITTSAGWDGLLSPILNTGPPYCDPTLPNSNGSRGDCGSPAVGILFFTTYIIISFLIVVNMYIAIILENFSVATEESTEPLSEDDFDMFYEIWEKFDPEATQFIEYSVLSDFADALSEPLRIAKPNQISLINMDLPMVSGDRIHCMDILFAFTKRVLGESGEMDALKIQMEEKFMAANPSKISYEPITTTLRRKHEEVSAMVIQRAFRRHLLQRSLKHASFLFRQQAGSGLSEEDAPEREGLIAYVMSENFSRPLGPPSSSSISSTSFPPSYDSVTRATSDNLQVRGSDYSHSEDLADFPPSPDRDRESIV
T2 sequence (Q12809 whole entry): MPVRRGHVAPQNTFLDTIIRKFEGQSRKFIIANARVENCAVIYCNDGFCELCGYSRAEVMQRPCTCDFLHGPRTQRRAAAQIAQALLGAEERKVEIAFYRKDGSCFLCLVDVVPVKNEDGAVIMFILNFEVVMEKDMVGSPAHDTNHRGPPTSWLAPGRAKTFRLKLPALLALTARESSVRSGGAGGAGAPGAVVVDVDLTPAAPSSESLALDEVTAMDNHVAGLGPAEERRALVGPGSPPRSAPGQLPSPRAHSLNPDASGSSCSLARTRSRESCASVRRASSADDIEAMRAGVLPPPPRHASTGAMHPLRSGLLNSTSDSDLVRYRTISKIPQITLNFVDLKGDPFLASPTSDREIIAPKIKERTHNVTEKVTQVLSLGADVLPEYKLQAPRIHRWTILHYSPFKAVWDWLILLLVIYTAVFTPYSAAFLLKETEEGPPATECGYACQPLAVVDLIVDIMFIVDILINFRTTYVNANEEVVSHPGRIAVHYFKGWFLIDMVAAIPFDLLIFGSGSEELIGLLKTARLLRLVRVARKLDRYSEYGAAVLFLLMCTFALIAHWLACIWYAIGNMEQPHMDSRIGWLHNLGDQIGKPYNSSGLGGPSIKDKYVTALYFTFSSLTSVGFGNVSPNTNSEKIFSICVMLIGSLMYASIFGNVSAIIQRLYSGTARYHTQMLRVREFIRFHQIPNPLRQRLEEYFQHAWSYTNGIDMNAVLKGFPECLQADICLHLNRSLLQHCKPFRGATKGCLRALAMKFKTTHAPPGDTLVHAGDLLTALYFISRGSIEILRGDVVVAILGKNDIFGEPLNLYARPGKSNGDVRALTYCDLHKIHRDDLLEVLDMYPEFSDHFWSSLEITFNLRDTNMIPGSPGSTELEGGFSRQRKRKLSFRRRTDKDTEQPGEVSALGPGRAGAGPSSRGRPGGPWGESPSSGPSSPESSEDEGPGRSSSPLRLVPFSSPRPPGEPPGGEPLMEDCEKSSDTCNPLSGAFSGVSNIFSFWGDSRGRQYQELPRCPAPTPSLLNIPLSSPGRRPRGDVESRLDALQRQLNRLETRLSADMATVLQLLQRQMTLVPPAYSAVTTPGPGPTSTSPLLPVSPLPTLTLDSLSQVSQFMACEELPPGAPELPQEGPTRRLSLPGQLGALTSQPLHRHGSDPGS

SMILES: COc1ccc(CCCOc2cccn3cc(C)nc23)cc1OC [Compound 3, 8-[3-(3,4-DIMETHOXYPHENYL)PROPOXY]-2-METHYLIMIDAZO[1,2-α]PYRIDINE MONOHYDROCHLORDE]
- D25 QT (dose required to produce a 25% increase in Q-T interval) (Sprague Dawley rats; indicates cardiac potassium channel blockade): 16 µmol/kg
- D25 PR (dose required to produce a 25% increase in P-R interval) (Sprague Dawley rats; indicates cardiac sodium channel blockade): 21 µmol/kg
- pIC50 (hH1 Na+ current): 4.03
- pIC50 (HERG): 6.22
